Data as given in patent US20230365563A1, “QUINAZOLINE COMPOUND AND APPLICATION THEREOF” (SHANGHAI PHARMACEUTICALS HOLDING CO., LTD., priority 2020, published 2023).
Counter-ions that a name gives are not always drawn.

Columns and labels:
KRAS-G12D and SOS1 = biological target: T1, KRAS-G12D and SOS1 (Homo sapiens, UniProt P01116, G12D); experiment: Inhibition of KRAS-G12D/SOS1 binding (Cisbio binding kit, 665/615 ratio), Effect Embodiment A; conditions: read-out: GTP-KRAS-G12D:SOS1 IC50
T1 construct: purchased
T1 sequence (P01116 1-188 isoform P01116-2 G12D): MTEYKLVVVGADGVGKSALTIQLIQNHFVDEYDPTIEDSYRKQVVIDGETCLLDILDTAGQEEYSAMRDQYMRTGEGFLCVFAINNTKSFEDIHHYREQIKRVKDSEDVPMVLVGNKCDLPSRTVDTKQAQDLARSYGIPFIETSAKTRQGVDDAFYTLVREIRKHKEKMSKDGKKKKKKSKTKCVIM
In short: (§1)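 Compounds underwent 3-fold dilution from their storage solutions (11 points), were transferred to assay wells in duplicate with DMSO held at 1% final, and were briefly centrifuged.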

KRAS_G12D and cRAF = biological target: T2, KRAS_G12D and cRAF (Homo sapiens, UniProt P01116, G12D); experiment: Inhibition of KRAS_G12D/cRAF binding (Cisbio binding kit, 665/615 ratio), Effect Embodiment B; conditions: read-out: GTP-KRAS-G12D:CRAF IC50
T2 construct: purchased
T2 sequence (P01116 1-188 isoform P01116-2 G12D): as above
In short: as §1

KRAS_WT and SOS1 = biological target: T3, KRAS_WT and SOS1 (Homo sapiens, UniProt P01116); experiment: Inhibition of KRAS_WT/SOS1 binding (Cisbio binding kit, 665/615 ratio), Effect Embodiment C; conditions: read-out: GTP-KRAS-WT:SOS1 IC50
T3 construct: purchased
T3 sequence (P01116 1-188 isoform P01116-2): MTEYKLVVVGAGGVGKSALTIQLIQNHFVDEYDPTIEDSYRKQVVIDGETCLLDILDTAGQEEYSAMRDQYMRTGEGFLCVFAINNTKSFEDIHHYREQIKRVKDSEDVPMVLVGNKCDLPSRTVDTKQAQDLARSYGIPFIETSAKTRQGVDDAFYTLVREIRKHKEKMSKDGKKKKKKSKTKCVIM
In short: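 Compounds tested as 3-fold, 11-point dilutions in duplicate at 1% DMSO final against the KRAS_WT/SOS1 binding system. IC50 derived by nonlinear regression fit.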

| Compound | IC50 (KRAS-G12D and SOS1) | IC50 (KRAS_G12D and cRAF) | IC50 (KRAS_WT and SOS1) |
| --- | --- | --- | --- |
| C[C@@H](COc1nc(N2CC3CCC(C2)N3)c2cc(Cl)c(-c3cc(O)cc4ccccc34)c(F)c2n1)CN(C)C (single isomer, unassigned) [Compound 203, 4-((S or R)-4-((1R,5S)-3,8-diazabicyclo[3.2.1]octan-3-yl)-6-chloro-2-((R)-3-(dimethylamino)-2-methylpropoxy)-8-fluoroquinazolin-7-yl)naphthalen-2-ol diformate] | 19.8 nM | 33.9 nM | 893 nM |
| Oc1cc(-c2c(Cl)cc3c(N4CC5CCC(C4)N5)nc(OCC4(CN5C6CCC5COC6)COC4)nc3c2F)c2ccccc2c1 (single isomer, unassigned) [Compound 204, 4-((7S or 7R)-2-((3-(3-oxa-8-azabicyclo[3.2.1]octan-8-ylmethyl)oxa-3-yl)methoxy)-4-((1R,5S)-3,8-diazabicyclo[3.2.1]octan-3-yl)-6-chloro-8-fluoroquinazolin-7-yl)naphthalen-2-ol ditrifluoroacetate] | 77.4 nM | 121 nM | 4250 nM |
| C[C@@H](COc1nc(N2CC3CCC(C2)N3)c2cc(Cl)c(-c3cc(O)cc4ccccc34)c(F)c2n1)CN1C[C@@H](C)O[C@@H](C)C1 (single isomer, unassigned) [Compound 205, 4-((S or R)-4-((1R,5S)-3,8-diazabicyclo[3.2.1]octan-3-yl)-6-chloro-2-((R)-3-((2S,6R)-2,6-dimethylmorpholinyl)-2-methylpropoxy)-8-fluoroquinazolin-7-yl)naphthalenol formate] | 11.6 nM | 13 nM | 505 nM |
| C[C@H](COc1nc(N2CC3CCC(C2)N3)c2cc(Cl)c(-c3cc(O)cc4ccccc34)c(F)c2n1)CN1C[C@@H](C)O[C@@H](C)C1 (single isomer, unassigned) [Compound 206, 4-((S or R)-4-((1R,5S)-3,8-diazabicyclo[3.2.1]octan-3-yl)-6-chloro-2-((S)-3-((2S,6R)-2,6-dimethylmorpholinyl)-2-methylpropoxy)-8-fluoroquinazolin-7-yl)naphthalen-2-ol diformate] | 46.1 nM | 134 nM | 6830 nM |
| C[C@@H]1CN(CC2(COc3nc(N4CC5CCC(C4)N5)c4cc(Cl)c(-c5cc(O)cc6ccccc56)c(F)c4n3)CC2)C[C@H](C)O1 (single isomer, unassigned) [Compound 207, 4-((S or R)-4-((1R,5S)-3,8-diazabicyclo[3.2.1]octan-3-yl)-6-chloro-2-((2S,6R)-2,6-dimethylmorpholinyl)methyl)cyclopropyl)methoxy)-8-fluoroquinazolin-7-yl)naphthalenol formate] | 11.6 nM | 7.23 nM | 196 nM |
| Oc1cc(-c2c(Cl)cc3c(N4CC5CCC(C4)N5)nc(OCC(CN4C5CCC4COC5)C4CC4)nc3c2F)c2ccccc2c1 (single isomer, unassigned) [Compound 209a, 4-((7S or 7R))-2-(2(R or S))-3-(3-oxa-8-azabicyclo[3.2.1]octan-8-yl)-2-cyclopropylpropoxy)-4-((1R,5S)-3,8-diazabicyclo[3.2.1]octan-3-yl)-6-chloro-8-fluoroquinazolin-7-yl)naphthalen-2-ol diformate] | 36.1 nM | 59.4 nM | 5650 nM |
| C[C@@H](COc1nc(N2C[C@H]3CC[C@@H](C2)N3)c2cc(Cl)c(-c3cc(O)cc4ccccc34)c(F)c2n1)CN1[C@@H]2CCC[C@H]1COC2 (single isomer, unassigned) [Compound 210, (S or R) 4-(2-((R)-3-((1R,5S)-3-oxa-9-azabicyclo[3.3.1]nonan-9-yl)-2-methylpropoxy)-4-((1R,5S)-3,8-diazabicyclo[3.2.1]octan-3-yl)-6-chloro-8-fluoroquinazolin-7-yl)naphthalen-2-ol diformate] | 17.8 nM | 17.8 nM | 2070 nM |
| Oc1cc(-c2c(Cl)cc3c(N4CC5CCC(C4)N5)nc(OC[C@@]45CCCN4C[C@H](F)C5)nc3c2F)c2c(F)c(F)ccc2c1 (single isomer, unassigned) [Compound 214a, 4-((S or R)-4-((1R,5S)-3,8-diazabicyclo[3.2.1]octane-3-yl)-6-chloro-8-fluoro-2-((2R,7aS)-2-fluorotetrahydro-1H-pyrrolidin-7a (5H)-yl)methoxy)quinazolin-7-yl)-5,6-difluoronaphthalen-2-ol diformate] | 13.2 nM | 8.68 nM | 8.01 nM |
| CCc1c(F)ccc2cc(O)cc(-c3c(F)cc4c(N5CC6CCC(C5)N6)nc(OCCCN5C6CCC5COC6)nc4c3F)c12 (single isomer, unassigned) [Compound 215a, 4-((7S or 7R)-2-(3-(3-oxa-8-azabicyclo[3.2.1]octan-8-yl)propoxy)-4-((1R,5S)-3,8-diazabicyclo[3.2.1]octan-3-yl)-6,8-difluoroquinazolin-7-yl)-5-ethyl-6-fluoronaphthalen-2-ol diformate] | 11.9 nM | 5.44 nM | 52.4 nM |
| C[C@@H](COc1nc(N2CC3CCC(C2)N3)c2cc(Cl)c(-c3cc(O)cc4ccccc34)c(F)c2n1)CN1C[C@@H](C)O[C@H](C)C1 (single isomer, unassigned) [Compound 216, 4-((S or R)-4-((1R,5S)-3,8-diazabicyclo[3.2.1]octan-3-yl)-6-chloro-2-((R)-3-((2R,6R)-2,6-dimethylmorpholinyl)-2-methylpropoxy)-8-fluoroquinazolin-7-yl)naphthalen-ol diformate] | 51.8 nM | 49.4 nM | 2020 nM |
| CC[C@@H]1CN(CCCOc2nc(N3CC4CCC(C3)N4)c3cc(Cl)c(-c4cc(O)cc5ccccc45)c(F)c3n2)C[C@H](CC)O1 (single isomer, unassigned) [Compound 221, 4-((S or R)-4-((1R,5S)-3,8-diazabicyclo[3.2.1]octan-3-yl)-6-chloro-2-(3-((2S,6R)-2,6-diethylmorpholinyl)propoxy)-8-fluoroquinazolin-7-yl)naphthalen-2-ol formate] | 63.6 nM | 175 nM | 5030 nM |
| CO[C@H]1C[C@H]2CC[C@@H](C1)N2C[C@@H](C)COc1nc(N2CC3CCC(C2)N3)c2cc(Cl)c(-c3cc(O)cc4ccccc34)c(F)c2n1 (single isomer, unassigned) [Compound 223, 4-((S or R)-4-((1R,5S)-3,8-diazabicyclo[3.2.1]octan-3-yl)-6-chloro-8-fluoro-2-((R)-3-((1R,3R,5S)-3-methoxy-8-azabicyclo[3.2.1]octan-8-yl)-2-methylpropoxy)quinazolin-7-yl)naphthalen-2-ol diformate] | 17.5 nM | 15.6 nM | 1700 nM |
| CO[C@@H]1C[C@H]2CC[C@@H](C1)N2C[C@@H](C)COc1nc(N2CC3CCC(C2)N3)c2cc(Cl)c(-c3cc(O)cc4ccccc34)c(F)c2n1 (single isomer, unassigned) [Compound 224, 4-((S or R)-4-((1R,5S)-3,8-diazabicyclo[3.2.1]octan-3-yl)-6-chloro-8-fluoro-2-((R)-3-((1R,3S,5S)-3-methoxy-8-azabicyclo[3.2.1]octan-8-yl)-2-methylpropoxy)quinazolin-7-yl)naphthalen-2-ol diformate] | 13.2 nM | 18.6 nM | 1350 nM |
| C[C@@H](COc1nc(N2CC3CCC(C2)N3)c2cc(Cl)c(-c3cc(O)cc4ccccc34)c(F)c2n1)CN1C[C@H](C)OC[C@@H]1C (single isomer, unassigned) [Compound 225, 4-((S or R)-4-((1R,5S)-3,8-diazabicyclo[3.2.1]octan-3-yl)-6-chloro-2-((R)-3-((2S,5S)-2,5-dimethylmorpholinyl)-2-methylpropoxy)-8-fluoroquinazolin-7-yl)naphthalenol formate] | 17.2 nM | 17.8 nM | 969 nM |
| C[C@@H](COc1nc(N2CC3CCC(C2)N3)c2cc(Cl)c(-c3cc(O)cc(Cl)c3C3CC3)c(F)c2n1)CN1C2CCC1COC2 (single isomer, unassigned) [Compound 227, 3-((7S or 7R)-2-((2R)-3-(3-oxa-8-azabicyclo[3.2.1]octan-8-yl)-2-methylpropoxy)-4-((1R,5S)-3,8-diazabicyclo[3.2.1]octan-3-yl)-6-chloro-8-fluoroquinazolin-7-yl)-5-chloro-4-cyclopropylphenol formate] | 16.7 nM | 23.4 nM | 593 nM |
| C[C@@H](COc1nc(N2CC3CCC(C2)N3)c2cc(Cl)c(-c3cc(O)cc4ccc(F)c(F)c34)c(F)c2n1)CN1C2CCC1COC2 (single isomer, unassigned) [Compound 228, ((4S or 4R) 4-(2-((2R)-3-(3-oxa-8-azabicyclo[3.2.1]octan-8-yl)-2-methylpropoxy)-4-((1R,5S)-3,8-diazabicyclo[3.2.1]octan-3-yl)-6-chloro-8-fluoroquinazolin-7-yl)-5,6-difluoronaphthalen-2-ol formate] | 14.2 nM | 18.3 nM | 92.3 nM |
| CCc1c(F)ccc2cc(O)cc(-c3c(F)cc4c(N5CC6CCC(C5)N6)nc(OC[C@H](C)CN5C6CCC5COC6)nc4c3F)c12 (single isomer, unassigned) [Compound 229a, 4-((7S or 7R)-2-((2R)-3-(3-oxa-8-azabicyclo[3.2.1]octan-8-yl)-2-methylpropoxy)-4-((1R,5S)-3,8-diazabicyclo[3.2.1]octan-3-yl)-6,8-difluoroquinazolin-7-yl)-5-ethyl-6-fluoronaphththalen-2-ol formate] | 16.4 nM | 11.8 nM | 160 nM |
